Data on 89 compounds can be found in a melting point compilation (Tetko et al.; mined from patent text by program, amines drawn as free bases though some values may be those of a salt).

The structures appear in SMILES notation. A value given as a limit tells only on which side of the number the result lay.

The compound `O=C(Nc1ccc(Cl)cc1)N[C@H]1C[C@H](C(=O)O)Nc2cc(Cl)cc(Cl)c21` (relative stereo) registered a melting point of 199 to 200 °C. Compound `C[C@@H]1C[C@H](C)CN(C(=O)[C@@H]2Cc3ccccc3N2c2nccs2)C1` displayed a melting point of 172 to 174 °C. As to `CSc1ccc2c(c1)C(Cl)c1ccccc1C=C2` (centres undefined), the melting point is 135 to 138 °C.

Regarding `CS(=O)(=O)N1CCC(Nc2nc(Nc3ccc(F)c(C(=O)N4CCOCC4)c3)nc(OCC(F)(F)F)n2)CC1`, the melting point lay within 217 to 219 °C. The figure for `CS(=O)(=O)OCCc1ccc(-c2cccnc2)cc1` is 66 to 68 °C; for `Cc1[nH]c2cccc(NC(=O)NCc3ccc(Br)cc3)c2c1C` it is 190 °C; for `c1ccc(C2(c3ccccc3)CCNCCO2)cc1` it is 72 to 75 °C. The figure for `O=C(Nc1ccc(C(=O)N2Cc3ccccc3Cc3ccccc32)cc1)c1cccc(C(F)(F)F)c1` is 190 to 191 °C.

On to `COC(=O)c1c[nH]c(-c2ccc(OC)cc2)n1`, for which the melting point lay in the range of 188 to 190 °C.

Consider `O=C(c1cc(-c2ccc(Cl)cc2)c(N2CCOCC2)s1)c1ccc(Cl)cc1Cl`, for which the melting point turned out to be 110 °C. The figure for `CN1C(=O)C(NC(=O)C(CC2CC2)C2(C(N)=O)CC=CC2)N=C(c2ccccc2)c2ccccc21` (centres undefined) is 238 to 240 °C; for `Cc1cc([N+](=O)[O-])cc(C(=O)Nc2nnn[nH]2)n1` it is above 300 °C. The figure for `C[C@H](C(=O)O)n1nc(O)c2[nH]c3cc(Cl)ccc3c(=O)c2c1=O` is above 275 °C; for `CN1C(=O)C2C3CCC(C3)C2(c2ccc3c(c2)CCCC3)C1=O` (centres undefined) it is 108 to 114 °C; for `CC(=O)OC[C@H]1OC(O)[C@H](OC(C)=O)[C@@H](F)[C@@H]1OC(C)=O` (some centres undefined) it is 115 to 120 °C. `CCOC(=O)c1nc(-c2ccc(N3CCOCC3)cc2)[nH]c1-c1ccc(Cl)cc1` had a melting point of 215 °C.

`COC(=O)c1cc(Cl)c(OCCn2ccnc2)s1` displayed a melting point of 97 to 99 °C. `COc1ccccc1CC(O)(Cc1cccs1)C(C)(C)C` (centres undefined) yielded a melting point of 74 to 75 °C.

For the compound `Cc1ccccc1-c1c(NC(=O)Nc2ccc(F)cc2F)c(=O)n(C)c2ccc(Cl)cc12`, the melting point was in the range of 163 to 165 °C.

Regarding `CNc1cc(Oc2ccc3ncccc3c2)ncn1`, the melting point is 173 °C. In the case of `NC(=O)c1csc(-c2cccc(N)c2)n1`, the melting point was in the range of 173 to 174 °C.

As to `CC(C)c1ccc(C(O)C(=O)O)cc1` (centres undefined), the melting point fell in the range of 156 to 157 °C. The result for `COC(=O)Cn1c(C(=O)OCc2ccccc2)cc2ccccc21` reads 94 °C; that for `Cc1c(Cl)cccc1Nc1ncccc1[N+](=O)[O-]`, 134 to 135 °C; that for `O=C(Nc1ccccc1C(c1ccc(O)cc1)c1ccc(O)cc1)c1cccs1`, 240 to 243 °C. The figure for `Cn1c(=Nc2nc(C(Cl)(Cl)Cl)nc(C(Cl)(Cl)Cl)n2)sc2ccccc21` is 251 to 253 °C; for `O=C1C2=C(CCCC2)C(=O)N1c1cc(OC2CCCCC2)c(Cl)cc1F` it is 102 to 103 °C; for `COCCNC(=O)c1ccc(C)c(-n2c(C)cc(OCc3ccc(F)cc3CNC(=O)Nc3cc(C(C)(C)C)nn3-c3ccc(Cl)c(O)c3)c(Cl)c2=O)c1` it is 186 to 187 °C.

Take `CC1(C)Oc2ccc(Br)cc2C(Oc2ccc(O)nn2)C1(C)O` (centres undefined): the melting point was determined as 242 °C. The result for `CC(C)c1nc(C(C)C)c(C(C)O)c(-c2ccc(F)cc2)c1-c1ccccc1` (centres undefined) reads 155 to 157 °C; that for `COc1ccc2c(c1)CCc1cnc(N(C)c3cc(OC)c(OC)c(OC)c3)nc1-2`, 199 to 201 °C.

Regarding `OCc1nn(Cc2ccccc2)c2ccccc12`, the melting point lay in the range of 85 to 86 °C. The compound `O=c1c(-c2ccccc2)c(CNc2ncnc3[nH]cnc23)oc2ccc(Br)cc12` came in with a melting point of 151 to 154 °C. The figure for `O=C(NCCc1ccc(F)cc1)OCC1CCCCC1` is 44 to 45 °C. For the compound `Fc1ccccc1C1=CCc2nnc(-c3ccncc3)n2-c2ccc(Cl)cc21`, the melting point is 198 to 200 °C. The figure for `CN(Cc1ccc(Cl)cc1)C(=O)CC12CC3CC(CC(C3)C1)C2` is 75 to 76 °C; for `CN1CC(CO)OC1=C(C#N)C=C1Nc2ccccc2C1=O` (centres undefined) it is 236 to 238 °C. The result for `O=C(O)COc1cccc2c1Cc1sc(SCC(c3ccccc3)c3ccccc3)nc1-2` reads 207 to 210 °C; that for `COc1ccc(Oc2ccc(OC(=O)N3CCC(C)CC3)cc2)cc1`, 81 to 84 °C. The figure for `O=C(/C=C/c1ccc(N2CCOCC2)cc1)CC(=O)/C=C/c1ccc2cc[nH]c2c1` is 93 to 97 °C; for `c1ccc2c(c1)CCc1cc(C3CO3)ccc1-2` (centres undefined) it is 65 to 66 °C; for `CC(C)n1c(=O)n(C(=O)NCC2CCN(CC3(C(=O)O)CCC3)CC2)c2ccccc21` it is 173 °C. As to `CCOC(=O)c1ccc(N(CC)CCc2ccccc2OCc2ccccc2)cc1`, the melting point turned out to be 76 °C. The result for `CC1NC(=O)NN=C1c1ccc(N2CCCC2)cc1` (centres undefined) reads 276 to 281 °C; that for `Cc1nc(N)c2nc(C)n(CCOCCN)c2c1C`, 130 to 133 °C; that for `CN(C)Cc1cccc2nc3n(c12)CCCN3c1ccc(Cl)cc1Cl`, 158 to 159 °C. Compound `CS(=O)(=O)Nc1c(C(=O)c2ccccc2)[nH]c2cc(F)ccc12` returned a melting point of 166 to 168 °C. The figure for `CCSC1CCC(=O)N1` (centres undefined) is 65 to 68 °C; for `O=C(Nc1ccccc1)Nc1ncc(Oc2ccc(Cl)cc2)c(N2CCOCC2)n1` it is 229 to 231 °C. With `CC(C)(NC(=O)C(O)C(N)Cc1ccc(S(C)(=O)=O)cc1)C(=O)O` (centres undefined), the melting point was 220 to 222 °C. In the case of `O=C(CCCCCNC(=O)OCc1ccccc1)NCCc1ccc(O)cc1`, the melting point is 108 °C. The figure for `COCc1ncn2c1CN(C)C(=O)c1c(Cl)cccc1-2` is 143 to 144 °C; for `CN1CCC(c2c[nH]c3ccc(Br)cc23)C1` (centres undefined) it is 152 to 154 °C. The figure for `Cc1cc2cc(CN3CCCC3)cnc2cc1NC(=O)c1ccc(-c2ccc(F)cc2)c(F)c1` is 163 to 166 °C; for `COC12CC(CCOC(=O)c3cncc(Br)c3)CN(C)C1Cc1cn(C)c3cccc2c13` (centres undefined) it is 187 to 190 °C; for `N#Cc1c(SSc2cn(-c3c(Cl)cc(C(F)(F)F)cc3Cl)c(Cl)c2C#N)cn(-c2c(Cl)cc(C(F)(F)F)cc2Cl)c1Cl` it is 220 °C. The figure for `COC(=O)c1ccc2c(nc(C)n2C)c1C(=O)OC` is 205 to 208 °C. Consider `O=C(Nc1cccc2c1C(=O)c1c-2n[nH]c1-c1ccc(C(=O)NN2CCCCC2)s1)NN1CCOCC1`, for which the melting point lay within 189 to 191 °C. The figure for `Clc1ccc2c(c1)CNc1ccccc1C2` is 132 to 135 °C. The figure for `CC(C)(C)OC(=O)N1CCN(c2ccc(Br)cn2)CC1` is 88 to 90 °C. The result for `COc1cc(C=O)ccn1` reads 33 to 35 °C; that for `Cc1ccc(C(=O)NCc2ccccc2)cc1-c1nc(NCCCN(C)C)nc2c1CNC(=O)N2c1c(F)cccc1F`, 141 to 144 °C; that for `CC(=O)/C=C(\C)c1ccc(C2CCCC2)cc1`, 33 to 33.5 °C. As for `CCOC(=O)C1C=Nc2c(cccc2[N+](=O)[O-])C1=O` (centres undefined), the melting point is 241 to 243 °C. The result for `CN(C)c1cc2ccccn2n1` reads 51 to 52 °C; that for `c1ccc(-c2nc(COc3ccc(CCCCn4ccnc4)cc3)cs2)cc1`, 93 to 94 °C; that for `Fc1ccc(CN2CCC(Nc3ccc(C(F)(F)F)nn3)CC2)cc1`, 163 to 165 °C. For the compound `CC(=O)C(C)OC(=O)CC[C@H]1NC(=O)[C@@H]1N1C(=O)c2ccccc2C1=O` (some centres undefined), the melting point fell in the range of 135 to 145 °C. The figure for `O=C(Nc1ccccn1)c1c(OC(F)F)ccc2oc3ccc(C(F)(F)F)cc3c12` is 169 to 170 °C. The figure for `CCOc1ccc(C(=O)N(C)Cc2cccc(-c3ccc(CC4SC(=O)NC4=O)cc3)c2)cc1` (centres undefined) is 182 °C.

For `O=S(=O)(N=Cc1cccnc1)c1ccccc1`, the melting point is 123 °C. The figure for `OC(Cn1c(-c2ccc(Cl)cc2)nc2cccnc21)c1ccccc1` (centres undefined) is 166 to 168 °C; for `FC(F)(F)c1ccc(/C=C/c2cc(Cl)cc(Cl)c2)cc1` it is 98 to 100 °C; for `CN(C)CCN1C(=O)N2[C@H](c3cccc(O)c3)c3[nH]c4ccc(Cl)cc4c3C[C@@]2(C)C1=O` (racemic) it is 283 to 286 °C. The figure for `CC(C)(C)c1ccc2c(O)c(-c3ccccc3)sc2n1` is 181 to 183 °C; for `CCn1cc(C=O)c(-c2ccc([N+](=O)[O-])o2)n1` it is 145 to 146 °C.

In turn, `CCC1(c2c[nH]cn2)Cc2ccc(N)cc2C1` (centres undefined) registered a melting point of 145 to 152 °C. `CN1CCNC1=NC(c1ccccc1)c1ccccc1` showed a melting point of 226 to 228 °C. The result for `COc1ccc(-c2c(Cl)c(CN3C(=O)CCC3=O)nc3sc4c(c23)CC[C@H](C(N)=O)C4)cc1` reads 282 to 283 °C.

In the case of `CCN(CC)C(=O)n1ccc(S(=O)(=O)c2ccc(Br)cc2C(F)(F)F)n1`, the melting point lay in the range of 62 to 65 °C. The figure for `Cc1cccc(COc2cccc(OCc3ccc4ccccc4n3)c2)c1C(=O)O` is 167 to 168 °C; for `CCc1c(C(=O)c2cc(C)cc(C#N)c2)[nH]c(=O)[nH]c1=O` it is 253 to 254 °C. The figure for `O=C(Nc1ccccc1)c1cccs1` is 139 to 149 °C.

`CCC(CC)n1nc(-c2ccc(O)cc2O)c2cccc(C(F)(F)F)c21`: the melting point fell in the range of 121 to 122 °C. The result for `CCN1c2ncc(/C=C/c3ccncc3)cc2C(=O)N(C)c2ccc(Cl)nc21` reads 150 to 152 °C.

`CC(=O)NNC(=O)c1ccc2occc2c1` gave a melting point of 145 to 146 °C.

Turning to `CCOC(=O)CNC(=O)Oc1c(C)n(CCOC)ccc1=O`, the melting point fell in the range of 134 to 135 °C.

In turn, `COc1ccc(Br)cc1-c1nc(N)nc(N)n1` gave a melting point of 294 to 297 °C.

With `CC(C)c1nc(-c2ccc(F)cc2)c(C=O)c(C(C)C)c1CO`, the melting point is 147 °C.

What is called melting point is the temperature of the solid-liquid transition.
